Measured values taken from US7384931B2, “Constrained compounds as CGRP-receptor antagonists” (Bristol-Myers Squibb Company, priority 2004, dated 2008).

Biological target: CGRP receptor (Homo sapiens, UniProt O60894+Q16602)
Experiment: CGRP radioligand binding assay ([125I]-CGRP displacement, SK-N-MC homogenate)
Set-up: endogenous in cells; host or cells: SK-N-MC cells (homogenate/membrane pellet)
Conditions: displacement of [125I]-CGRP, room temperature 2 h
Method: CGRP Binding Assay. Tissue Culture. SK—N-MC cells were grown at 37° C. in 5% CO2 as a monolayer in medium consisting of MEM with Earle's salts and L-glutamine (Gibco) supplemented with 10% fetal bovine serum (Gibco). Cell Pellets. The cells were rinsed twice with phosphate-buffered saline (155 mM NaCl, 3.3 mM Na2HPO4, 1.1 mM KH2PO4, pH 7.4), and incubated for 5-10 min. at 4° C. in hypotonic lysis buffer consisting of 10 mM Tris (pH 7.4) and 5 mM EDTA. The cells were transferred from plates to polypropylene tubes (16×100 mm) and homogenized using a polytron. Homogenates were centrifuged at 32,000×g for 30 min. The pellets were resuspended in cold hypotonic lysis buffer with 0.1% mammalian protease inhibitor cocktail (Sigma) and assayed for protein concentration. The SK—N-MC homogenate was then aliquoted and stored at −80° C. until needed.
Radioligand Binding Assay. The compounds of invention were solubilized and carried through serial dilutions using 100% DMSO. Aliquots from the compound serial dilutions were further diluted 25 fold into assay buffer (50 mM Tris-Cl pH 7.5, 5 mM MgCl2, 0.005% Triton X-100) and transferred (volume 50 μl) into 96 well assay plates. [^125I]-CGRP (Amersham Biosciences) was diluted to 60 pM in assay buffer and a volume of 50 μl was added to each well. SK—N-MC pellets were thawed, diluted in assay buffer with fresh 0.1% mammalian protease inhibitor cocktail (Sigma), and homogenized again. SK—N-MC homogenate (5 μg/well) was added in a volume of 100 μl. The assay plates were then incubated at room temperature for 2 h. Assays were stopped by addition of excess cold wash buffer (20 mM Tris-Cl pH 7.5, 0.1% BSA) immediately followed by filtration over glass fiber filters (Whatman GF/B) previously soaked in 0.5% PEI. Non-specific binding was defined with 1 μM beta-CGRP. Protein bound radioactivity was determined using a gamma or scintillation counter. The IC50 was defined as the concentration of a compound of invention required to displace 50% of radioligand binding.

Sequence of CGRP receptor (Q16602 23-461): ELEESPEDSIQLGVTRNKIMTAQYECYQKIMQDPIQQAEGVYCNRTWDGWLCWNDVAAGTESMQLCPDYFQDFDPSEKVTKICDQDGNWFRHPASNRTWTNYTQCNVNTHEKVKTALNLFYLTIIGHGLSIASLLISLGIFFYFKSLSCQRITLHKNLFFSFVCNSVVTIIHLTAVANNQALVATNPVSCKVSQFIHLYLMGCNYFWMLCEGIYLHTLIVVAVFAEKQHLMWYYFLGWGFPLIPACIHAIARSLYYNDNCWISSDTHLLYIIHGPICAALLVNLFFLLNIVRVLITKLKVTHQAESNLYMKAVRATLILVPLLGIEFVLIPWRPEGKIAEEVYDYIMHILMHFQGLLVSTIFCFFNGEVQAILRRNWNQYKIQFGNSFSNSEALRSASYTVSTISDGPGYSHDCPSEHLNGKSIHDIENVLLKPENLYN
Sequence of CGRP receptor (O60894 27-148): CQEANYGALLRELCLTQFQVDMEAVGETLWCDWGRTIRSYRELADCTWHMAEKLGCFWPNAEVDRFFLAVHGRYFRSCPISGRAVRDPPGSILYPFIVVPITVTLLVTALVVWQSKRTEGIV

SMILES	IC50 [nM]
CC(C)(C)CN1Cc2c(cc(Cl)c3[nH]ncc23)C[C@@H](CC(=O)Nc2ccc3c(c2)CCC2(C3)NC(=O)NC2=O)C1=O (mixture of isomers) [Example 86, (±)-1-[[(7S)-4-chloro-9-(2,2-dimethylpropyl)-3,6,7,8,9,10-hexahydro-8-oxoazepino[3,4-e]indazol-7-yl]yacetyl]-Amino-3′,4′-dihydro-^1H-spiro[imidazolidine-4,2′naphthalene]-2,5-dione]	0.1 to 10
CN1Cc2c(ccc3[nH]ncc23)C[C@@H](NC(=O)N2CCC(N3Cc4ccccc4NC3=O)CC2)C1=O [Example 2, 4-(2-Oxo-1,4-dihydro-2H-quinazolin-3-yl)-piperidine-1-carboxylic acid (9-methyl-8-oxo-3,6,7,8,9,10-hexahydro-2,3,9-triaza-(R)-cyclohepta[e]inden-7-yl)-amide]	100 to 1000
O=C(N[C@@H]1Cc2ccc3[nH]ncc3c2CN(CCN2CCCC2)C1=O)N1CCC(N2Cc3ccccc3NC2=O)CC1 [Example 4, 4-(2-Oxo-1,4-dihydro-2H-quinazolin-3-yl)-piperidine-1-carboxylic acid [8-oxo-9-(2-pyrrolidin-1-yl-ethyl)-3,6,7,8,9,10-hexahydro-2,3,9-triaza-(R)-cyclohepta[e]inden-7-yl]-amide]	100 to 1000
CN(C)CCN1Cc2c(ccc3[nH]ncc23)C[C@@H](NC(=O)N2CCC(N3Cc4ccccc4NC3=O)CC2)C1=O [Example 5, 4-(2-Oxo-1,4-dihydro-2H-quinazolin-3-yl)-piperidine-1-carboxylic acid [9-(2-dimethylamino-ethyl)-8-oxo-3,6,7,8,9,10-hexahydro-2,3,9-triaza-(R)-cyclohepta[e]inden-7-yl]-amide]	100 to 1000
O=C1Nc2ccccc2C2(CCN(C(=O)N[C@@H]3Cc4ccc5[nH]ncc5c4CN(CCN4CCOCC4)C3=O)CC2)N1 [Example 8, ′H-Spiro[piperidine-4,4′-quinazolin]-2′(3′H)-one-1-carboxylic acid [9-(2-morpholin-4-yl-ethyl)-8-oxo-3,6,7,8,9,10-hexahydro-2,3,9-triaza-(R)-cyclohepta[e]inden-7-yl]-amide]	> 1000
CC(C)N1Cc2c(ccc3[nH]ncc23)C[C@@H](NC(=O)N2CCC(N3Cc4ccccc4NC3=O)CC2)C1=O [Example 15, 4-(2-Oxo-1,4-dihydro-2H-quinazolin-3-yl)-piperidine-1-carboxylic acid (9-isopropyl-8-oxo-3,6,7,8,9,10-hexahydro-2,3,9-triaza-(R)-cyclohepta[e]inden-7-yl)-amide]	10 to 100
CC(C)(C)OC(=O)N1CCC(N2Cc3c(ccc4[nH]ncc34)C[C@@H](NC(=O)N3CCC(N4Cc5ccccc5NC4=O)CC3)C2=O)CC1 [Example 17]	10 to 100
CC(C)CN1Cc2c(ccc3[nH]ncc23)CC(NC(=O)N2CCC3(CC2)NC(=O)Nc2ccccc23)C1=O (stereo not shown) [Example 25, N-[9-(2-methylpropyl)-8-oxo-3,6,7,8,9,10-hexahydroazepino[3,4-e]indazol-7-yl]-2′-oxo-2′,3′-dihydro-1H, 1′H-spiro[piperidine-4,4′-quinazoline]-1-carboxamide]	100 to 1000
O=C1Nc2ccccc2C2(CCN(C(=O)NC3Cc4ccc5[nH]ncc5c4CN(Cc4ccncc4)C3=O)CC2)N1 (stereo not shown) [Example 29, N-[9-pyridin-4-ylmethyl-8-oxo-3,6,7,8,9,10-hexahydroazepino[3,4-e]indazol-7-yl]-2′-oxo-2′,3′-dihydro-1H,1′H-spiro[piperidine-4,4′-quinazoline]-1-carboxamide]	100 to 1000
CN1Cc2cc(OCc3ccccc3)ccc2CC(NC(=O)N2CCC(N3Cc4ccccc4NC3=O)CC2)C1=O (stereo not shown) [Example 31, 4-(2-Oxo-1,4-dihydro-2H-quinazolin-3-yl)-piperidine-1-carboxylic acid (8-benzyloxy-2-methyl-3-oxo-2,3,4,5-tetrahydro-1H-benzo[c]azepin-4-yl)-amide]	> 1000
CN1Cc2cc(O)ccc2CC(NC(=O)N2CCC(N3Cc4ccccc4NC3=O)CC2)C1=O (stereo not shown) [Example 32, 4-(2-Oxo-1,4-dihydro-2H-quinazolin-3-yl)-piperidine-1-carboxylic acid (8-hydroxy-2-methyl-3-oxo-2,3,4,5-tetrahydro-1H-benzo[c]azepin-4-yl)-amide]	100 to 1000
CN1Cc2c(cc(Br)c(O)c2Br)CC(NC(=O)N2CCC(N3Cc4ccccc4NC3=O)CC2)C1=O (stereo not shown) [Example 34, 4-(2-Oxo-1,4-dihydro-2H-quinazolin-3-yl)-piperidine-1-carboxylic acid (7,9-dibromo-8-hydroxy-2-methyl-3-oxo-2,3,4,5-tetrahydro-1H-benzo[c]azepin-4-yl)-amide]	100 to 1000
O=C(C[C@@H]1Cc2cc(Cl)c3[nH]ncc3c2CN(Cc2ccncc2)C1=O)N1CCC(c2cc(-c3ccccc3)[nH]n2)CC1 [Example 35, (S)-4-Chloro-7-(2-oxo-2-(4-(5-phenyl-1H-pyrazol-3-yl)piperidin-1-yl)ethyl)-9-(pyridin-4-ylmethyl)-6,7,9,10-tetrahydroazepino[3,4-e]indazol-8(3H)-one]	10 to 100
O=C(C[C@@H]1Cc2ccc3[nH]ncc3c2CN(Cc2ccccc2)C1=O)N1CCC(N2Cc3ccccc3NC2=O)CC1 [Example 38, (S)-9-Benzyl-7-(2-oxo-2-(4-(2-oxo-1,2-dihydroquinazolin-3(4H)-yl)piperidin-1-yl)ethyl)-6,7,9,10-tetrahydroazepino[3,4-e]indazol-8(3H)-one]	100 to 1000

Next, values leading:

IC50 [nM]	SMILES
10 to 100	CC(C)(C)CN1Cc2c(cc(Cl)c3[nH]ncc23)C[C@@H](CC(=O)Nc2ccc3c(c2)CC2(C3)NC(=O)NC2=O)C1=O (mixture of isomers) [Example 87, (±)-1-[[(7S)-4-chloro-9-(2,2-dimethylpropyl)-3,6,7,8,9,10-hexahydro-8-oxoazepino[3,4-e]indazol-7-yl]acetyl]-Amino-spiro[imidazolidine-4,2′-indane]-2,5-dione]
100 to 1000	O=C(N[C@@H]1Cc2ccc3[nH]ncc3c2CN(CCN2CCCCC2)C1=O)N1CCC(N2Cc3ccccc3NC2=O)CC1 [Example 3, 4-(2-Oxo-1,4-dihydro-2H-quinazolin-3-yl)-piperidine-1-carboxylic acid [8-oxo-9-(2-piperidin-1-yl-ethyl)-3,6,7,8,9,10-hexahydro-2,3,9-triaza-(R)-cyclohepta[e]inden-7-yl]-amide]
100 to 1000	C[C@@H](c1ccccc1)N1Cc2c(ccc3[nH]ncc23)C[C@@H](NC(=O)N2CCC3(CC2)NC(=O)Nc2ccccc23)C1=O [Example 9, ′^1H-Spiro[piperidine-4,4′-quinazolin]-2′(3′H)-one-1-carboxylic acid [8-oxo-9-(1-(S)-phenyl-ethyl)-3,6,7,8,9,10-hexahydro-2,3,9-triaza-(R)-cyclohepta[e]inden-7-yl]-amide]
10 to 100	O=C(N[C@@H]1Cc2ccc3[nH]ncc3c2CN(Cc2ccc(C(F)(F)F)cc2)C1=O)N1CCC(N2Cc3ccccc3NC2=O)CC1 [Example 13, 4-(2-Oxo-1,4-dihydro-2H-quinazolin-3-yl)-piperidine-1-carboxylic acid [8-oxo-9-(4-trifluoromethyl-benzyl)-3,6,7,8,9,10-hexahydro-2,3,9-triaza-(R)-cyclohepta[e]inden-7-yl]-amide]
100 to 1000	O=C1Nc2ccccc2C2(CCN(C(=O)N[C@@H]3Cc4ccc5[nH]ncc5c4CN(Cc4ccc(C(F)(F)F)cc4)C3=O)CC2)N1 [Example 14, ′H-spiro[piperidine-4,4′-quinazolin]-2′(3′H)-one-1-carboxylic acid [8-oxo-9-(4-trifluoromethyl-benzyl)-3,6,7,8,9,10-hexahydro-2,3,9-triaza-(R)-cyclohepta[e]inden-7-yl]-amide]
100 to 1000	O=C(N[C@@H]1Cc2ccc3[nH]ncc3c2CN(C2CCNCC2)C1=O)N1CCC(N2Cc3ccccc3NC2=O)CC1 [Example 18, 4-(2-Oxo-1,4-dihydro-2H-quinazolin-3-yl)-piperidine-1-carboxylic acid (8-oxo-9-piperidin-4-yl-3,6,7,8,9,10-hexahydro-2,3,9-triaza-(R)-cyclohepta[e]inden-7-yl)-amide]
10 to 100	CC(C)(C)CN1Cc2c(ccc3[nH]ncc23)CC(NC(=O)N2CCC3(CC2)NC(=O)Nc2ccccc23)C1=O (stereo not shown) [Example 23, N-[9-(2,2-dimethylpropyl)-8-oxo-3,6,7,8,9,10-hexahydroazepino[3,4-e]indazol-7-yl]-2′-oxo-2′,3′dihydro-1H, 1′H-spiro[piperidine-4,4′-quinazoline]-1-carboxamide]
> 1000	CN1Cc2c(cc(Cl)c(O)c2Cl)CC(NC(=O)N2CCC(N3Cc4ccccc4NC3=O)CC2)C1=O (stereo not shown) [Example 33, 4-(2-Oxo-1,4-dihydro-2H-quinazolin-3-yl)-piperidine-1-carboxylic acid (7,9-dichloro-8-hydroxy-2-methyl-3-oxo-2,3,4,5-tetrahydro-1H-benzo[c]azepin-4-yl)-amide]
